Experimental data taken from patent publication US4668682A, “2-Phenylalkyl-3-aminoalkyl-4(3H)-quinazolinone compound” (Mitsubishi Chemical Industries Limited, priority 1984, dated 1987).
Counter-ions that a name gives are not always drawn.

Tests used:
[1] = tested on: calcium induced contraction of the isolated thoracic aorta in rats; assay: Calcium antagonistic activity: relaxation of calcium induced contraction of isolated thoracic aorta; format: cell-based, rat (male Wistar strain); conditions: spiral specimen of rat thoracic aorta, 80 mM potassium, 10 mM Ca++; relaxing activity; read-out: Minimum effective concentration
Description: Calcium antagonistic activity
Calcium antagonistic activity of the present compound was investigated by observing the effects on the calcium induced contraction of the isolated thoracic aorta in rats.
A piece of thoracic aorta was isolated from male Wistar strain rats weighing 350-450 g in order to prepare a spiral specimen. This specimen was suspended in a Krebs-Henseleit solution free from calcium. The contraction was evoked by an application of CaCl2 in the presence of 80 mM potassium so as to adjust the solution at a concentration of 10 mM Ca^++. The present compound to be tested was applied to the specimen which had been maximally contracted and was evaluated for its relaxing activity.

[2] = tested on: blood flow of the circumflex branch of left coronary artery (dog); assay: Increasing activity of coronary blood flow in anesthetized dogs; format: in vivo, dog (mongrel); conditions: Canis lupus familiaris, 0.1 mg/kg iv, read-out: Increase rate of coronary blood flow
Description: Increasing activity of coronary blood flow
Male and female mongrel dogs weighing 8 to 17.5 kg were anesthetized with intravenous administration of sodium pentobarbital at a dosage of 30 mg/kg. Under artificial respiration the chest was opened on the left side at the level of the fourth intercostal space and the heart was exposed. The circumflex branch of left coronary artery just below the junction of the anterior descending branch of left coronary artery was isolated in a width of approximately 1 cm, and a flow probe was placed around this artery in order to measure the blood flow of the circumflex branch of left coronary artery by means of an electromagnetic flow meter. During the tests, systemic blood pressure was monitored, and data obtained from tests where the mean blood presure was less than 65 mmHg were excluded from the final data. The pharmaceutical compound to be tested was dissolved in physiological saline or 50% ethanol/50% physiological saline and the thus obtained solution was intravenously administered at a dosage of 1 ml/10 kg through a polyethylene catheter which had been provided within the left femoral vein. The increasing activity of the blood flow of the circumflex branch of left coronary artery was evaluated and expressed in terms of increase rate of the blood flow after the administration of the compound to that of before the administration of the compound.

[3] = Acute toxicity test (mouse, oral administration); conditions: in vivo, male ICR mice, fasted 18 hours
Description: Tests were made using groups each comprising five male ICR strain mice weighing 30 to 35 g and being kept under a fast for 18 hours. The compound to be tested was suspended in a 1% tragacanth solution. After the concentration of the suspensions was adjusted in a volume of 40 ml/kg, the compound was administered orally to the mouse.

[4] = tested on: spontaneously hypertensive rats (SHR), average blood pressure; assay: Antihypertensive activity in spontaneously hypertensive rats; format: in vivo, rat (SHR); conditions: oral
Description: Antihypertensive activity
The compounds to be tested were administered orally to evaluate antihypertensive activity in spontaneously hypertensive rats (hereinafter SHR).
The average blood pressure of male SHR, 20 to 30 weeks old, was measured in a non-anestetised and non restraint state, through a catheter which had been chronically implanted into the abdominal aorta through the right fermoral artery, using an electromanometer. At the same time, the heart rate was measured by a tachometer triggered by the pulse pressure. The compound to be tested was suspended in a 1% tragacanth solution. After the concentration of the suspensions was adjusted in a volume of 5 ml/kg, the compound was administered orally to the SHR. The blood pressure and heart rate were measured 0.5, 1, 3, 6 and 24 hours after the administration.

acetylcolinesterase = conditions: Indian J. Pharm., 33, 80 (1971); cited from earlier work

| Compound | minimal effective concentration [1] | change in vivo at 0.1 mg/kg [2] | LD50 [3] | other results |
| --- | --- | --- | --- | --- |
| CCOc1ccc2nc(Cc3cc(OC)ccc3OC)n(CCN(C)CCc3ccc(OC)c(OC)c3)c(=O)c2c1 [Compound 121] | 0.03 µM | – | – | – |
| COc1ccc(OC)c(Cc2nc3ccc(C)cc3c(=O)n2CCN2CCCC2)c1 [Compound 31] | 1 µM | 42.5% | 1000 mg/kg | – |
| COc1ccc(OC)c(Cc2nc3ccc(C)cc3c(=O)n2CCN(C)CCc2ccc(OC)c(OC)c2)c1 [Compound 114] | 0.1 µM | – | – | – |
| CCN(CC)CCn1c(Cc2cc(OC)ccc2OC)nc2ccc(I)cc2c1=O [Compound 26] | 1 µM | – | – | – |
| COc1ccc(OC)c(Cc2nc3ccc(OC(C)C)cc3c(=O)n2CCN(C)C)c1 [Compound 47] | 0.1 µM | 95.4% | 750 mg/kg | Increase rate of average blood pressure after administration, after 1 hour ([4]; 10 mg/kg): -12%; Increase rate of average blood pressure after administration, after 3 hours ([4]; 10 mg/kg): -3% |
| COc1ccc(OC)c(Cc2nc3ccc(OC(C)C)cc3c(=O)n2CCCN(C)C)c1 [Compound 30, 2-(2,5-Dimethoxyphenylmethyl)-3-(3-dimetylaminopropyl)-6-isopropoxy-4(3H)-quinazolinone maleate] | 0.3 µM | – | – | – |
| COc1ccc(OC)c(Cc2nc3ccccc3c(=O)n2CCN2CCCC2)c1 [Compound 15] | 0.3 µM | 45.3% | – | – |
| COc1ccc(OC)c(Cc2nc3ccc(OC(C)C)cc3c(=O)n2CCCN(C)CCc2ccc(OC)c(OC)c2)c1 [Compound 103] | 0.1 µM | – | – | – |
| COc1ccc([C@@H]2Sc3ccccc3N(CCN(C)C)C(=O)[C@@H]2OC(C)=O)cc1 [diltiazem, reference compound] | 0.3 µM | 91.2% | 650 mg/kg | Increase rate of average blood pressure after administration, after 1 hour ([4]; 30 mg/kg): -8%; Increase rate of average blood pressure after administration, after 3 hours ([4]; 30 mg/kg): 0%; Increase rate of average blood pressure after administration, after 1 hour ([4]; 100 mg/kg): -28%; Increase rate of average blood pressure after administration, after 3 hours ([4]; 100 mg/kg): -14% |
| CCN(CC)CCn1c(Cc2ccc(OCc3ccccc3)cc2)nc2ccccc2c1=O [Compound 20] | 0.3 µM | – | – | – |
| CCC(C)Oc1ccc2nc(Cc3cc(OC)ccc3OC)n(CCCN(C)C)c(=O)c2c1 (stereo not shown) [Compound 64] | 0.3 µM | 47.6% | – | – |
| COc1ccc(Cc2nc3ccc(OC(C)C)cc3c(=O)n2CCN(C)C)cc1 [Compound 50] | 0.3 µM | – | 700 mg/kg | Increase rate of average blood pressure after administration, after 1 hour ([4]; 10 mg/kg): -17%; Increase rate of average blood pressure after administration, after 3 hours ([4]; 10 mg/kg): -7% |
| CCN(CC)CCCn1c(Cc2cc(OC)ccc2OC)nc2ccccc2c1=O [Compound 14] | 1 µM | 42.7% | – | – |
| COc1ccc(Cc2nc3cc(OC)c(OC(C)C)cc3c(=O)n2CCN(C)C)cc1 [Compound 82] | – | – | 750 mg/kg | Increase rate of average blood pressure after administration, after 1 hour ([4]; 10 mg/kg): -24%; Increase rate of average blood pressure after administration, after 3 hours ([4]; 10 mg/kg): -15% |
| COc1ccc(OC)c(Cc2nc3ccccc3c(=O)n2CCN(C)CCc2ccc(OC)c(OC)c2)c1 [Compound 93] | 0.03 µM | – | – | – |
| COc1ccc(OC)c(Cc2nc3ccc(OC(C)C)cc3c(=O)n2CCN(C)CCc2ccc(OC)c(OC)c2)c1 [Compound 102] | 0.03 µM | 53.6% | 1000 mg/kg | Increase rate of average blood pressure after administration, after 1 hour ([4]; 10 mg/kg): -11%; Increase rate of average blood pressure after administration, after 3 hours ([4]; 10 mg/kg): -2% |
| CCC(C)Oc1ccc2nc(Cc3cc(OC)ccc3OC)n(CCN(C)C)c(=O)c2c1 (stereo not shown) [Compound 63] | 0.3 µM | 77.3% | 1200 mg/kg | – |
| CCN(CC)CCn1c(Cc2ccccc2OCc2ccccc2)nc2ccccc2c1=O [Compound 19] | 0.3 µM | – | – | – |
| CCN(CC)CCn1c(Cc2cc(OC)ccc2OC)nc2ccccc2c1=O [Compound 13] | 3 µM | 32.7% | 700 mg/kg | – |
| COc1ccc(OC)c(Cc2nc3ccc(I)cc3c(=O)n2CCN(C)CCc2ccc(OC)c(OC)c2)c1 [Compound 116] | 0.03 µM | – | – | – |
| CCCCN(CCCC)CCCn1c(C)nc2ccc(Cl)cc2c1=O [2-methyl-3-(3-dibutylaminopropyl)-6-chloro-4(3H)-quinazolinone] | – | – | – | inhibitive activity of acetylcolinesterase (acetylcolinesterase): inhibitive activity of acetylcolinesterase |
